# In PMC5077204, “Accumulation of Peptidoglycan O-Acetylation Leads to Altered Cell Wall Biochemistry and Negatively Impacts Pathogenesis Factors of Campylobacter jejuni” (The Journal of Biological Chemistry, 2016):
# Target: T1, Ape1-His6 (Campylobacter jejuni, UniProt A0A0H3PJ52)
# T1 construct: gene CJJ81176_0638; predicted 21-residue signal peptide removed; C-terminal His6 tag (pET28a(+)), expressed in E. coli BL21(DE3)
# Assay: absorbance at […] nm, p-nitrophenol release
# Assay type: biochemical
# Settings: 2 mM pNPAc; 50 mM sodium phosphate pH 6.5; room temperature
# T1 sequence (A0A0H3PJ52 entry or part of it): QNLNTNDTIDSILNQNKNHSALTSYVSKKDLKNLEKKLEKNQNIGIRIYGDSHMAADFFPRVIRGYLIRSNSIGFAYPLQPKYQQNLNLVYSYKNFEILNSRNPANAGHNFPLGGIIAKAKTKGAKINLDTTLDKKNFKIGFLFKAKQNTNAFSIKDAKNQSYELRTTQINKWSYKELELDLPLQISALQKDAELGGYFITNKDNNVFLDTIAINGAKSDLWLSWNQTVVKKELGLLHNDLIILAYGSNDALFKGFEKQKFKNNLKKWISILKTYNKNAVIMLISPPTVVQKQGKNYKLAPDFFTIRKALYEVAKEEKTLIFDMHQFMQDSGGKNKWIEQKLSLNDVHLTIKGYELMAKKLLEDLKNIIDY
smiles,measurement,value
CC(=O)Oc1ccc([N+](=O)[O-])cc1 [p-nitrophenyl acetate],"absorbance at 405 nm, p-nitrophenol release",The specific activity of purified Ape1 was determined using p-nitrophenylacetate (pNPAc)
